Assay results published in ChEMBL document CHEMBL3351330, “Design, synthesis, and in vitro evaluation of an activity-based protein profiling (ABPP) probe targeting agmatine deiminases” (Bioorg Med Chem, 2014).
Active and inactive are the calls of the source. No cut-off for these calls is given here.

Assays:
[1] = biological target: T1, Putative agmatine deiminase (Streptococcus mutans serotype c (strain ATCC 700610 / UA159)) (UniProt Q8DW17); assay: Binding affinity to Streptococcus mutans agmatine deiminase expressed in Escherichia coli assessed as enzyme level detected by compound at 10 uM after 45 mins by coomassie blue staining based gel electrophoresis method
T1 sequence (whole entry): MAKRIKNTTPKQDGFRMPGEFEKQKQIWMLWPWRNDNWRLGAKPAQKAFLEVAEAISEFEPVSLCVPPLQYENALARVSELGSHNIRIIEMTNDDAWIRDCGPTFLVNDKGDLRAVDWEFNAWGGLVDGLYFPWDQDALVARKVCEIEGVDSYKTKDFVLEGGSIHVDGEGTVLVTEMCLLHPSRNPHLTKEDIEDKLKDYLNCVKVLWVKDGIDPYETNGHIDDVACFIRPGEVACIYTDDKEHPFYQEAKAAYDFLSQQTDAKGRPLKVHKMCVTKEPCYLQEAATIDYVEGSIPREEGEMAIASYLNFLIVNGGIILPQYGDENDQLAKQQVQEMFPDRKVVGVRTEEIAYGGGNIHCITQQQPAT

[2] = biological target: T1, Putative agmatine deiminase (Streptococcus mutans serotype c (strain ATCC 700610 / UA159)); assay: Binding affinity to Streptococcus mutans agmatine deiminase expressed in Escherichia coli assessed as enzyme photo labeling at 10 uM after 45 mins by coomassie blue staining based gel electrophoresis method
[3] = biological target: T1, Putative agmatine deiminase (Streptococcus mutans serotype c (strain ATCC 700610 / UA159)); assay: Binding affinity to Streptococcus mutans agmatine deiminase expressed in Escherichia coli assessed as enzyme photo labeling at 2 to 10 uM by coomassie blue staining based gel electrophoresis method
[4] = biological target: T1, Putative agmatine deiminase (Streptococcus mutans serotype c (strain ATCC 700610 / UA159)); assay: Binding affinity to Streptococcus mutans agmatine deiminase in presence of Escherichia coli cell lysates assessed as enzyme level detected by compound at 10 uM after 45 mins by coomassie blue staining based gel electrophoresis method
[5] = biological target: T1, Putative agmatine deiminase (Streptococcus mutans serotype c (strain ATCC 700610 / UA159)); assay: Binding affinity to Streptococcus mutans agmatine deiminase expressed in Escherichia coli assessed as enzyme photo labeling at 2 to 10 uM after 45 mins by coomassie blue staining based SDS-PAGE method
[6] = biological target: T2, Putative agmatine deiminase (Streptococcus mutans serotype c (strain ATCC 700610 / UA159), UniProt Q8DW17); assay: Inhibition of Streptococcus mutans agmatine deiminase expressed in Escherichia coli pre-incubated for 15 mins before agmatine substrate addition
T2 sequence (Q8DW17 whole entry): T1 sequence (whole entry)

[7] = biological target: T1, Putative agmatine deiminase (Streptococcus mutans serotype c (strain ATCC 700610 / UA159)); assay: Binding affinity to Streptococcus mutans agmatine deiminase in presence of Escherichia coli cell lysates assessed as enzyme photo labeling at 10 uM after 45 mins by coomassie blue staining based gel electrophoresis method
[8] = biological target: T1, Putative agmatine deiminase (Streptococcus mutans serotype c (strain ATCC 700610 / UA159)); assay: Binding affinity to Streptococcus mutans agmatine deiminase expressed in Escherichia coli assessed as enzyme photo labeling at 10 uM pre-treated with 10 uM ABCA for 45 mins by coomassie blue staining based gel electrophoresis method

N=C(CCl)NCCCCNCCCCCNC(=S)Nc1ccc(-c2c3ccc(=O)cc-3oc3cc(O)ccc23)c(C(=O)O)c1
Activity [1]: 1 pmol | Activity [2]: Active | Activity [3]: Active | Activity [4]: 0.5 pmol | Activity [5]: Active | IC50 [6]: 10.6 µM | Activity [7]: Active | Activity [8]: inactive

N=C(CCl)NCCCCN
IC50 [6]: 0.26 µM
